The experiment relates to MC4L2 mice tumor. The experiment can be described thus: MC4L2 mice tumor treated with drug with or without electrostatic field, tumor followed by sonography. It counts as in vivo. The note with it: for reduction in tumor volume: without electrostatic field.

“Also recorded” adds a separate entry of the source.

Method: Here, three injection periods of Cisplatin were carried out every 3 days for a group of mice having a MC4L2 mice tumor as an example of triple-positive breast cancer. About 20 mg/kg of Cisplatin was applied for a Control sample with a MC4L2 mice tumor without applying an electrostatic field. In each period, about 5 mg/kg of Cisplatin was applied for a sample mouse No. 1 with a MC4L2 mice tumor, and then followed by applying an electrostatic field with an intensity in a range of −60 V to −120 V according to exemplary method 100 or exemplary method 110, described hereinabove, utilizing a conductive patch similar to electrically conductive element 304 on mice skin near the MC4L2 tumor site, and applying direct current (DC) electrostatic field utilizing a Van de Graaff device.
All sonography images were taken after about 10 days of treatments, and all drug injections were done every about 3 days.

As for `N.N.[Cl][Pt][Cl]` [Cisplatin], the “tumor after treatment (sonography)” value (about 5 mg/kg Cisplatin per period, then DC electrostatic field -60 V to -120 V via conductive patch, three periods every 3 days) was “no observable trace of tumor; also recorded: removed completely”. Also, the “reduction in tumor volume” value (about 20 mg/kg Cisplatin, injections every 3 days, sonography) is recorded as “about 60%”.

As to `COc1cccc2c1C(=O)c1c(O)c3c(c(O)c1C2=O)C[C@@](O)(C(=O)CO)C[C@@H]3O[C@H]1C[C@H](N)[C@H](O)[C@H](C)O1` [Doxorubicin], the “tumor after treatment (sonography)” value (about 1 mg/kg Doxorubicin per period, then DC electrostatic field 60 V to 120 V via conductive patch, four periods every 3 days) is on record as “no observable trace of tumor; also recorded: removed completely”. Moreover, the “reduction in tumor volume” value (about 10 mg/kg Doxorubicin, sonography after about 10 days) is recorded as “about 75%”.

The values are drawn from patent US11911628B2, “Electrostatic drug delivery” (NANO HESGARSAZAN SALAMAT ARYA INCUBATION CENTER FOR MEDICAL …, priority 2019, dated 2024).
